Among the data in patent publication US7625897B2, “Non-nucleoside reverse transcriptase inhibitors” (Roche Palo Alto LLC, priority 2005, dated 2009) are IC50 and melting point values, retold here.

One series concerns the target HIV-1 RT (Human immunodeficiency virus type 1 group M subtype B, UniProt P03366). Nature of the series: HIV Reverse Transcriptase Assay: Inhibitor IC50 determination. It is filed as biochemical. Conditions: purified recombinant enzyme, poly(rA)/oligo(dT)16 template-primer, read-out: HIV-RT IC50 RT. The procedure:
HIV Reverse Transcriptase Assay: Inhibitor IC50 determination
HIV-1 RT assay was carried out in 96-well Millipore MultiScreen MADVNOB50 plates using purified recombinant enzyme and a poly(rA)/oligo(dT)16 template-primer in a total volume of 50 μL. The assay constituents were 50 mM Tris/HCl, 50 mM NaCl, 1 mM EDTA, 6 mM MgCl2, 5 μM dTTP, 0.15 μCi [^3H] dTTP, 5 μg/ml poly (rA) pre annealed to 2.5 μg/ml oligo (dT)16 and a range of inhibitor concentrations in a final concentration of 10% DMSO. Reactions were initiated by adding 4 nM HIV-1 RT and after incubation at 37° C. for 30 min, they were stopped by the addition of 50 μl ice cold 20% TCA and allowed to precipitate at 4° C. for 30 min. The precipitates were collected by applying vacuum to the plate and sequentially washing with 3×200 μl of 10% TCA and 2×200 μl 70% ethanol. Finally, the plates were dried and radioactivity counted in a Packard TopCounter after the addition of 25 μl scintillation fluid per well. IC50's were calculated by plotting % inhibition versus log10 inhibitor concentrations.

pIC50: −log10 of the molar value. Read-outs that look alike come from different tables or passages of the source.

The term pIC50 denotes −log10 of the IC50, conventionally taken in molar units. As usually defined, the melting point is the temperature of the solid-liquid transition. `CC1CC(Cc2ccc(Cl)c(Oc3cc(Cl)cc(C#N)c3)c2F)=NNC1=O` (stereo in doubt) [Compound I-22, 3-chloro-5-[6-chloro-2-fluoro-3-((S)-5-methyl-6-oxo-1,4,5,6-tetrahydro-pyridazin-3-ylmethyl)-phenoxy]-benzonitrile] had a melting point of 156.5 to 157.2 °C. Besides, on HIV-1 RT (TABLE I), the pIC50 is 7.75.
In turn, `CC1CC(Cc2ccc(Cl)c(Oc3cc(Cl)cc(Br)c3)c2F)=NNC1=O` (stereo in doubt) [Compound I-23, (S)-6-[3-(3-Bromo-5-chloro-phenoxy)-4-chloro-2-fluoro-benzyl]-4-methyl-4,5-dihydro-2H-pyridazin-3-one] gave a melting point of 148.2 to 151 °C. For the same compound, on HIV-1 RT (TABLE I), the pIC50 is 7.84.
On to `C[C@@H]1NC(Cc2ccc(Cl)c(Oc3cccc(Br)c3)c2)=NNC1=O` [Compound I-1, (S)-3-[3-(3-Bromo-phenoxy)-4-chloro-benzyl]-5-methyl-4,5-dihydro-1H-[1,2,4]triazin-6-one], for which the negative-log IC50 (pIC50) on HIV-1 RT (TABLE I) is 5.34.
In turn, `C[C@@H]1NC(Cc2ccc(Cl)c(Oc3cc(Br)cc(Br)c3)c2F)=NNC1=O` [Compound I-2, (S)-3-[4-Chloro-3-(3,5-dibromo-phenoxy)-2-fluoro-benzyl]-5-methyl4,5-dihydro-1H-[1,2,4]triazin-6-one] gave a melting point of 88 to 91.5 °C. In addition, the negative-log IC50 (pIC50) at HIV-1 RT (TABLE I) was 6.78.
Regarding `C[C@H]1NC(Cc2ccc(Cl)c(Oc3cc(Br)cc(Br)c3)c2F)=NNC1=O` [Compound I-3, (R)-3-[4-Chloro-3-(3,5-dibromo-phenoxy)-2-fluoro-benzyl]-5-methyl-4,5-dihydro-1H-[1,2,4]triazin-6-one], the melting point is 75.2 to 79.1 °C. Moreover, the pIC50 on HIV-1 RT (TABLE I) is 7.97.
Take `CC1OC(Cc2ccc(Cl)c(Oc3cccc(Br)c3)c2)=NNC1=O` (stereo not drawn) [Compound I-4, 2-[3-(3-Bromo-phenoxy)-4-chloro-benzyl]-6-methyl-4H-[1,3,4]oxadiazin-5-one]: at HIV-1 RT (TABLE I), the pIC50 was 7.29.
`CC1OC(Cc2ccc(Cl)c(Oc3cc(Cl)cc(Br)c3)c2F)=NNC1=O` (stereo not drawn) [Compound I-6, 2-[3-(3-Bromo-5-chloro-phenoxy)-4-chloro-2-fluoro-benzyl]-6-methyl-4H-[1,3,4]oxadiazin-5-one]: the pIC50 at HIV-1 RT (TABLE I) was 7.61.
Consider `CC1OC(Cc2ccc(Cl)c(Oc3cc(Br)cc(Br)c3)c2F)=NNC1=O` (stereo not drawn) [Compound I-7, 2-[4-Chloro-3-(3,5-dibromo-phenoxy)-2-fluoro-benzyl]-6-methyl-4H-[1,3,4]oxadiazin-5-one], for which the melting point lay in the range of 174.2 to 176.1 °C. In addition, the negative logarithm of the IC50 (pIC50) at HIV-1 RT (TABLE I) is 7.61.
As for `CC1OC(Cc2ccc(Cl)c(Oc3cc(Cl)cc(C#N)c3)c2F)=NNC1=O` (stereo not drawn) [Compound I-8, 3-Chloro-5-[6-chloro-2-fluoro-3-(6-methyl-5-oxo-5,6-dihydro-4H-[1,3,4]oxadiazin-2-ylmethyl)-phenoxy]-benzonitrile], the pIC50 at HIV-1 RT (TABLE I) was 7.87.
`CC1OC(Cc2ccc(Cl)c(Oc3cc(C#N)cc(C#N)c3)c2F)=NNC1=O` (stereo not drawn) [Compound I-9, 5-[6-chloro-2-fluoro-3-(6-methyl-5-oxo-5,6-dihydro-4H-[1,3,4]oxadiazin-2-ylmethyl)-phenoxy]-isophthalonitrile] gave a melting point of 60.9 to 67.7 °C. In addition, the negative logarithm of the IC50 (pIC50) on HIV-1 RT (TABLE I) is 7.39.
Consider `O=C1NN=C(Cc2ccc(Cl)c(Oc3cc(Br)cc(Br)c3)c2F)NC12CC2` [Compound I-10, 5-[4-Chloro-3-(3,5-dibromo-phenoxy)-2-fluoro-benzyl]-4,6,7-triaza-spiro[2.5]oct-5-en-8-one], for which the melting point lay within 90 to 95 °C. The pIC50 at HIV-1 RT (TABLE I) is 7.18.
For `CC1(C)OC(Cc2ccc(Cl)c(Oc3cccc(Br)c3)c2)=NNC1=O` [Compound I-11, 2-[3-(3-Bromo-phenoxy)4-chloro-benzyl]-6,6-dimethyl-4H-[1,3,4]oxadiazin-5-one], the pIC50 at HIV-1 RT (TABLE I) is less than 5.00.
Still for that read-out and setting: the figure for `CCC1OC(Cc2ccc(Cl)c(Oc3cccc(Br)c3)c2)=NNC1=O` (stereo not drawn) [Compound I-12, 2-[3-(3-Bromo-phenoxy)-4-chloro-benzyl]-6-ethyl-4H-[1,3,4]oxadiazin-5-one] is 6.67.
The compound `CC1(C)OC(Cc2ccc(Cl)c(Oc3cccc(C#N)c3)c2)=NNC1=O` [Compound I-13, 3-[2-Chloro-5-(6,6-dimethyl-5-oxo-5,6-dihydro-4H-[1,3,4]oxadiazin-2-ylmethyl)-phenoxy]-benzonitrile] registered a melting point of 94.1 to 95.3 °C. Moreover, the negative logarithm of the IC50 (pIC50) on HIV-1 RT (TABLE I) is 5.02.
Take `CCC1OC(Cc2ccc(Cl)c(Oc3cccc(C#N)c3)c2)=NNC1=O` (stereo not drawn) [Compound I-14, 3-[2-Chloro-5-(6-ethyl-5-oxo-5,6-dihydro4H-[1,3,4]oxadiazin-2-ylmethyl)-phenoxy]-benzonitrile]: the pIC50 at HIV-1 RT (TABLE I) was 6.89.
For the compound `C[C@H]1NC(Cc2ccc(Cl)c(Oc3cc(C#N)cc(C(F)F)c3)c2F)=NNC1=O` [Compound I-16, 3-[6-Chloro-2-fluoro-3-((R)-5-methyl-6-oxo-1,4,5,6-tetrahydro-[1,2,4]triazin-3-ylmethyl)-phenoxy]-5-difluoromethyl-benzonitrile], the pIC50 at HIV-1 RT (TABLE I) was 7.82.
Still for that read-out and setting: the figure for `CC[C@H]1NC(Cc2ccc(Cl)c(Oc3cc(Cl)cc(C#N)c3)c2F)=NNC1=O` [Compound I-17, 3-Chloro-5-[6-chloro-3-((R)-5-ethyl-6-oxo-1,4,5,6-tetrahydro-[1,2,4]triazin-3-ylmethyl)-2-fluoro-phenoxy]-benzonitrile] is 7.89.
Same read-out and setting: the same measure for `C[C@@H]1NC(Cc2ccc(Cl)c(Oc3cc(Cl)cc(C#N)c3)c2F)=NNC1=O` [Compound I-18, 3-Chloro-5-[6-chloro-2-fluoro-3-(5-methyl-6-oxo-1,4,5,6-tetrahydro-[1,2,4]triazin-3-ylmethyl)-phenoxy]-benzonitrile]: 7.92.
On to `Cc1ccc(CC2=NNC(=O)[C@@H](C)N2)c(F)c1Oc1cc(C#N)cc(C(F)F)c1` [Compound I-19, 3-Difluoromethyl-5-[2-fluoro-6-methyl-3-((R)-5-methyl-6-oxo-1,4,5,6-tetrahydro-[1,2,4]triazin-3-ylmethyl)-phenoxy]-benzonitrile], for which the pIC50 on HIV-1 RT (TABLE I) was 7.74.
Turning to `C[C@H]1CC(Cc2ccc(Cl)c(Oc3cccc(Br)c3)c2)=NNC1=O` [Compound I-20, (S)-6-[3-(3-Bromo-phenoxy)4-chloro-benzyl]-4-methyl-4,5-dihydro-2H-pyridazin-3-one], the negative logarithm of the IC50 (pIC50) on HIV-1 RT (TABLE I) is 7.18.
In the case of `C[C@H]1CC(Cc2ccc(Cl)c(Oc3cccc(C#N)c3)c2)=NNC1=O` [Compound I-21, 3-[2-chloro-5-((S)-5-methyl-6-oxo-1,4,5,6-tetrahydro-pyridazin-3-ylmethyl)-phenoxy]-benzonitrile], the negative-log IC50 (pIC50) on HIV-1 RT (TABLE I) was 7.33.
Same read-out and setting: the figure for `O=C1CCC(Cc2ccc(Cl)c(Oc3ccccc3)c2)=NN1` [Compound I-24, 6-(4-Chloro-3-phenoxy-benzyl)-4,5-dihydro-2H-pyridazin-3-one] is 5.58.
`C[C@H]1NC(Cc2ccc(Br)c(Oc3cc(C#N)cc(C(F)F)c3)c2F)=NNC1=O` [Compound I-25, 3-[6-Bromo-2-fluoro-3-((R)-5-methyl-6-oxo-1,4,5,6-tetrahydro-[1,2,4]triazin-3-ylmethyl)-phenoxy]-5-difluoromethyl-benzonitrile] had a melting point of 231.5 to 233 °C. On HIV-1 RT (TABLE I), the negative-log IC50 (pIC50) is 7.93.
Compound `C[C@H]1NC(Cc2ccc(Br)c(Oc3cc(Cl)cc(C#N)c3)c2F)=NNC1=O` [Compound I-26] had a melting point of 178.2 to 179 °C. At HIV-1 RT (TABLE I), the negative logarithm of the IC50 (pIC50) was 8.18.
Take `CC1(C)NC(Cc2ccc(Cl)c(Oc3cc(Cl)cc(C#N)c3)c2F)=NNC1=O` [Compound I-27]: on HIV-1 RT (TABLE I), the pIC50 is 5.15.
`N#Cc1cc(Cl)cc(Oc2c(Cl)ccc(CC3=NNC(=O)CN3)c2F)c1` [Compound I-28] yielded a melting point of 177.6 to 178 °C. In addition, the negative logarithm of the IC50 (pIC50) at HIV-1 RT (TABLE I) is 6.85.
Take `N#Cc1cc(Cl)cc(Oc2c(Cl)ccc(CC3=NNC(=O)C(C(F)(F)F)N3)c2F)c1` (stereo not drawn) [Compound I-29]: the negative logarithm of the IC50 (pIC50) at HIV-1 RT (TABLE I) was 7.57.
`N#Cc1cc(Cl)cc(Oc2c(Cl)ccc(CC3=NNC(=O)[C@@H](CO)N3)c2F)c1` [Compound I-30] showed a melting point of 112.5 to 114 °C. The negative logarithm of the IC50 (pIC50) at HIV-1 RT (TABLE I) was 6.38.
As to `Cc1nc(Cc2ccc(Cl)c(Oc3cccc(Br)c3)c2)n[nH]c1=O` [II-1], the pIC50 at HIV-1 RT (TABLE II) was 6.48.
Take `Cc1nc(Cc2ccc(Cl)c(Oc3cccc(C#N)c3)c2)n[nH]c1=O` [II-2, 3-[2-Chloro-5-(5-methyl-6-oxo-1,6-dihydro-[1,2,4]triazin-3-ylmethyl)-phenoxy]-benzonitrile]: the melting point fell in the range of 145.3 to 145.8 °C. The negative-log IC50 (pIC50) on HIV-1 RT (TABLE II) was 6.69.
Taken in the same sequence, the figures for `O=c1[nH]nc(Cc2ccc(Cl)c(Oc3cccc(Br)c3)c2)nc1-c1ccccc1` [II-3, 3-[3-(3-Bromo-phenoxy)4-chloro-benzyl]-5-phenyl-1H-[1,2,4]triazin-6-one] were 59.8 to 63.9 °C and 6.46.
In turn, `Cc1nc(Cc2ccc(Cl)c(Oc3cc(Br)cc(Br)c3)c2F)n[nH]c1=O` [II-4, 3-[4-Chloro-3-(3,5-dibromo-phenoxy)-2-fluoro-benzyl]-5-methyl-1H-[1,2,4]triazin-6-one] came in with a melting point of 180.9 to 183.3 °C. On HIV-1 RT (TABLE II), the pIC50 was 6.86.
As for `Cc1nc(Cc2ccc(Cl)c(Oc3cc(Br)cc(C#N)c3)c2F)n[nH]c1=O` [II-6, 3-Bromo-5-[6-chloro-2-fluoro-3-(5-methyl-6-oxo-1,6-dihydro-[1,2,4]triazin-3-ylmethyl)-phenoxy]-benzonitrile], the pIC50 on HIV-1 RT (TABLE II) was 7.49.
